Experimental data from patent US20210137886A1, “INHIBITORS OF METALLO-BETA-LACTAMASES” (Oxford University Innovation Limited, priority 2017, published 2021).
pIC50: −log10 of the molar value.

Columns and labels:
[1] = target: VIM-1 (Veronese metallo-β-lactamase-1) (Pseudomonas aeruginosa, UniProt A0A0F7KYQ8); assay: Metallo-β-lactamase enzyme inhibition, standard assay protocol
[2] = target: NDM-1 (New Delhi metallo-β-lactamase-1) (Klebsiella pneumoniae, UniProt C7C422); assay: as above
[3] = test system: E. coli VIM-1; assay: Meropenem MIC, CLSI broth or agar microdilution, strain entry 3; format: cell-based; conditions: strain entry 3, E. coli VIM-1
Description: (§1) In each case DMSO was used to dissolve inhibitors.

[4] = test system: Klebsiella pneumoniae IMP-4; assay: Meropenem MIC, CLSI broth or agar microdilution, strain entry 1; format: cell-based
[5] = test system: Klebsiella pneumoniae VIM-1; assay: Meropenem MIC, CLSI broth or agar microdilution, strain entry 4; format: cell-based
[6] = target: IMP-1 (Imipenemase-1) (Serratia marcescens, UniProt P52699); assay: Metallo-β-lactamase enzyme inhibition, standard assay protocol
[7] = test system: Klebsiella pneumoniae NDM-1 + DHA + CTX − M-15; assay: Meropenem MIC, CLSI broth or agar microdilution, strain entry 7; format: cell-based
[8] = test system: E. coli IMP-4; assay: Meropenem MIC, CLSI broth or agar microdilution, strain entry 2; format: cell-based
[9] = test system: Klebsiella pneumoniae NDM-1; assay: Meropenem MIC, CLSI broth or agar microdilution, strain entry 6; format: cell-based; conditions: strain entry 6, Klebsiella pneumoniae NDM-1
Description: as §1

[10] = target: VIM-2 (Veronese metallo-β-lactamase-2) (Escherichia coli, UniProt Q5U7L7); assay: Metallo-β-lactamase enzyme inhibition, standard assay protocol
[11] = test system: Pseudomonas aeruginosa VIM-2; assay: Meropenem MIC, CLSI broth or agar microdilution, strain entry 5; format: cell-based; conditions: strain entry 5, Pseudomonas aeruginosa VIM-2
Description: as §1

Sequence of IMP-1 (Imipenemase-1) (P52699 19-246, looked up, species assumed): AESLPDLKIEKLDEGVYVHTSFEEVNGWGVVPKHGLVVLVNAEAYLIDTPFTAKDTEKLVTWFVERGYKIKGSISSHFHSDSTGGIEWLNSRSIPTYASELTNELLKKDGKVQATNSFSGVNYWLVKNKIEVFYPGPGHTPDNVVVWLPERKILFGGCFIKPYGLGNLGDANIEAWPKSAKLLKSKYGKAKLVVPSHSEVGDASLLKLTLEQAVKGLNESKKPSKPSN
Sequence of NDM-1 (New Delhi metallo-β-lactamase-1) (C7C422 29-270, looked up, species assumed): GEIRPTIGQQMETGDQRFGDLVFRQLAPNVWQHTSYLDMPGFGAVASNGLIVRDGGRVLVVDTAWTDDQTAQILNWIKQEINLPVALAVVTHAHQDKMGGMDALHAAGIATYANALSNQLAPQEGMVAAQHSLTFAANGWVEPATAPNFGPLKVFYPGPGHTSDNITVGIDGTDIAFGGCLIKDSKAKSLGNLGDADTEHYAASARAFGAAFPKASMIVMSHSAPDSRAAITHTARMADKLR

Compound	pIC50 [1]	pIC50 [2]	Change in MIC value of meropenem ([3]; 2 mg/L inhibitor)	Change in MIC value of meropenem ([3]; 4 mg/L inhibitor)	Change in MIC value of meropenem ([3]; 8 mg/L inhibitor)	Change in MIC value of meropenem ([4]; 2 mg/L inhibitor)	Change in MIC value of meropenem ([4]; 4 mg/L inhibitor)	Change in MIC value of meropenem ([4]; 8 mg/L inhibitor)	Change in MIC value of meropenem ([5]; 2 mg/L inhibitor)	Change in MIC value of meropenem ([5]; 4 mg/L inhibitor)	Change in MIC value of meropenem ([5]; 8 mg/L inhibitor)	pIC50 [6]	Change in MIC value of meropenem ([7]; 2 mg/L inhibitor)	Change in MIC value of meropenem ([7]; 4 mg/L inhibitor)	Change in MIC value of meropenem ([7]; 8 mg/L inhibitor)	Change in MIC value of meropenem ([8]; 2 mg/L inhibitor)	Change in MIC value of meropenem ([8]; 4 mg/L inhibitor)	Change in MIC value of meropenem ([8]; 8 mg/L inhibitor)	Change in MIC value of meropenem ([9]; 2 mg/L inhibitor)	Change in MIC value of meropenem ([9]; 4 mg/L inhibitor)	further results
CC(C)c1csc2c(-c3ccc(F)cc3)c(C(=O)O)[nH]c12 [Example 12, 3-isopropyl-6-(4-fluorophenyl)-4H-thieno-[3,2-b]pyrrole-5-carboxylic acid]	6.20	7.30	−1 log2 difference	−1 log2 difference	−1 log2 difference	−2 log2 difference	−2 log2 difference	−2 log2 difference	−2 log2 difference	−2 log2 difference	−2 log2 difference	7.30	−1 log2 difference	−2 log2 difference	−3 log2 difference	−2 log2 difference	−2 log2 difference	−3 log2 difference	−1 log2 difference	−1 log2 difference	Change in MIC value of meropenem ([9]; 8 mg/L inhibitor): −2 log2 difference; pIC50 [10]: 7.40; Change in MIC value of meropenem ([11]; 2 mg/L inhibitor): 0 log2 difference; Change in MIC value of meropenem ([11]; 4 mg/L inhibitor): 0 log2 difference; Change in MIC value of meropenem ([11]; 8 mg/L inhibitor): 0 log2 difference
O=C(O)c1[nH]c2c(C3CC3)csc2c1-c1ccc(F)cc1 [Example 13, 3-cyclopropyl-6-(4-fluorophenyl)-4H-thieno-[3,2-b]pyrrole-5-carboxylic acid]	5.80	7.30	−1 log2 difference	−1 log2 difference	−1 log2 difference	−2 log2 difference	−2 log2 difference	−2 log2 difference	−2 log2 difference	−2 log2 difference	−2 log2 difference	6.40	−2 log2 difference	−2 log2 difference	−2 log2 difference	−2 log2 difference	−2 log2 difference	−2 log2 difference	−1 log2 difference	−1 log2 difference	Change in MIC value of meropenem ([9]; 8 mg/L inhibitor): −2 log2 difference; pIC50 [10]: 7.10; Change in MIC value of meropenem ([11]; 2 mg/L inhibitor): 0 log2 difference; Change in MIC value of meropenem ([11]; 4 mg/L inhibitor): 0 log2 difference; Change in MIC value of meropenem ([11]; 8 mg/L inhibitor): 0 log2 difference
NS(=O)(=O)c1ccc(-c2c(C(=O)O)[nH]c3c(Br)csc23)cc1 [Example 14, 3-bromo-6-(4-sulfamoylphenyl)-4H-thieno-[3,2-b]pyrrole-5-carboxylic acid]	5.50	7.20	−1 log2 difference	−1 log2 difference	−1 log2 difference	−1 log2 difference	−1 log2 difference	−1 log2 difference	−1 log2 difference	−1 log2 difference	−1 log2 difference	5.90	−2 log2 difference	−2 log2 difference	−3 log2 difference	−1 log2 difference	−1 log2 difference	−1 log2 difference	−1 log2 difference	−1 log2 difference	Change in MIC value of meropenem ([9]; 8 mg/L inhibitor): −2 log2 difference; pIC50 [10]: 6.80; Change in MIC value of meropenem ([11]; 2 mg/L inhibitor): 0 log2 difference; Change in MIC value of meropenem ([11]; 4 mg/L inhibitor): 0 log2 difference; Change in MIC value of meropenem ([11]; 8 mg/L inhibitor): 0 log2 difference
